Measured values reported in patent publication US12029804B2, “Peptide for promoting mucous membrane permeation and composition containing same” (SOONCHUNHYANG UNIVERSITY INDUSTRY ACADEMY COOPERATION …, priority 2018, dated 2024).
Read-outs that look alike come from different tables or passages of the source. Bridge positions count the residues as written; N and C are the ends. Square brackets hold non-standard residues; d marks the D form. Ends that are not written are not given here. Peptide text beside a SMILES is read from it. I, II: the chains in the order shown. ξ: configuration not given here. Dap(N3) = [N-]=[N+]=NC[C@H](N)C(=O)O; ξDap(N3) = [N-]=[N+]=NCC(N)C(=O)O

Tests used:
[1] = in vivo; details: rat, in vivo
Protocol: (§1) For a control group, a 0.5% (w/v) levan aqueous solution including doxorubicin without the peptide was prepared.
(§2) At this time, the dosage of peptide-containing drug was 10 mg/kg for each group.
(§3) Before drug administration, the rat was anesthetized and cannulated into the femoral veno-artery using PE-50. An abdominal cavity was opened and the test substance was administered to an upper duodenum of the small intestine.
(§4) After administration of the solution through a cannula inserted into the femoral vein of the rat, each 250 μl of blood was collected at 5, 10, 20, 40, 60, 120, 180 and 240 minutes and saline was supplemented via the femoral artery. The collected blood was centrifuged at 13,000 rpm for 10 minutes so as to obtain 100 μl of plasma. After adding 200 μl of methanol to the obtained plasma, the resulting solution was subjected into vortex, and then centrifuged again at 13,000 rpm for 10 minutes to carry out deproteinization, and the supernatant was quantitatively analyzed by HPLC-Fluorescence.

[2] = tested on: nasal mucous membrane; details: rat, intranasal; for AUC0-360min of fexofenadine, times higher than the group dosed with fexofenadine alone: fexofenadine with peptide (text on Table 1)
Protocol: Male Sprague-Dawley (SD) rats (280-300 g) were acclimated for a minimum of two days in individual cages in a laboratory animal room. At this time, the rats were allowed to freely consume food and water before an experiment, provided with light for 12 hours, and maintained in the dark state for 12 hours. One day before the experiment, the animals were provided only with water and fasted.
The rats prepared in above 1 were divided into each group of three to five rats so as to prepare a total of nine groups, after which each of the test substances prepared was intranasally administered into the group. At this time, the dosage of each drug was 1.0, 2.5 or 5.0 mg/kg per rat.
Before intranasal administration, the rat was anesthetized and cannulated into the femoral veno-artery using PE-50. The solution was carefully administered to the nostril of the rat using a micropipette (Eppendof) so as not to affect the nasal mucous membrane. At this time, the rat's body was laid on the floor and the head was placed while leaning against the wall.
The collected blood was centrifuged at 13,000 rpm for 10 minutes so as to obtain 100 μl of plasma. After adding 200 μl of methanol to the obtained plasma, the resulting solution was subjected into vortex, and then centrifuged again at 13,000 rpm for 10 minutes to carry out deproteinization, and the supernatant was quantitatively analyzed by HPLC-MS.

[3] = tested on: intestinal mucous membrane; experiment: Intestinal (duodenum) administration of doxorubicin with peptide or peptide dimer in rats, doxorubicin blood concentration; details: rat, duodenum, peptide 10 mg/kg vs doxorubicin only
Protocol: as §1, §2, §3, §4

[4] = rat, plasma, 10 mg/kg
Protocol: as §3
as §4, with “HPLC-MS.” for “HPLC-Fluorescence.”

[5] = tested on: intestinal mucous membrane; details: rat, duodenum
Protocol: as §3
as §4, with “HPLC-MS.” for “HPLC-Fluorescence.”

[6] = tested on: Caco-2 monolayer; experiment: Drug permeability through the Caco-2 monolayer with peptide; details: peptide 5 mM, all drugs of Table 3
[7] = in vitro; details: human, Caco-2
[8] = fexofenadine with peptide vs fexofenadine alone

Compound | Fexofenadine AUC0-240 min, fold of control group [2, 8] | Fexofenadine Cmax, fold of control group [2, 8] | Fexofenadine Tmax, fold of control group [2, 8] | Doxorubicin AUC0-240 min, fold of control [3] | other results
COc1cccc2c1C(=O)c1c(O)c3c(c(O)c1C2=O)C[C@@](O)(C(=O)CO)C[C@@H]3O[C@H]1C[C@H](N)[C@H](O)[C@H](C)O1 [Doxorubicin, doxorubicin, reference compound] |  |  |  |  | AUC(0-t) ([1]; male, Sprague-Dawley): 76.2 ng·h/mL
CC[C@H](C)[C@H](NC(=O)C(CN=[N+]=[N-])NC(=O)[C@H](N)Cc1ccccc1)C(=O)NCC(=O)N[C@@H](CCCNC(=N)N)C(=O)N[C@@H](CC(C)C)C(N)=O (stereo partly drawn) [Example 1, FX1IGRL-NH2(X1=Dap(N3))] (H-[dF][ξDap(N3)]IGRL-NH2) | (1.92-fold) | 3 fold | (0.57-fold) | (1.81-fold) | Fexofenadine Cmax, fold of control group ([2]; fexofenadine with peptide vs fexofenadine alone, listed as H-FX1IGRL-NH2): (2.90-fold); Fexofenadine AUC0-240 min, fold of control group ([2]; peptide 1 mg/kg): (1.64-fold); Fexofenadine Cmax, fold of control group ([2]; peptide 1 mg/kg): 2 fold; Fexofenadine Tmax, fold of control group ([2]; peptide 1 mg/kg): (0.57-fold); Fexofenadine Cmax, fold of control group ([2]; peptide 1 mg/kg, listed as H-FX1IGRL-NH2): (2.01-fold); Fexofenadine AUC0-240 min, fold of control group ([2]; peptide 5 mg/kg): (2.48-fold); Fexofenadine Cmax, fold of control group ([2]; peptide 5 mg/kg): 4 fold; Fexofenadine Tmax, fold of control group ([2]; peptide 5 mg/kg): (0.43-fold); Fexofenadine Cmax, fold of control group ([2]; peptide 5 mg/kg, listed as H-FX1IGRL-NH2): (4.05-fold); Fexofenadine Tmax, fold of control group ([2]; peptide […]): (0.57-fold)
CC[C@@H](C)[C@@H](NC(=O)[C@@H](CSSC[C@H](NC(=O)[C@H](N)Cc1ccccc1)C(=O)N[C@H](C(=O)NCC(=O)N[C@@H](CCCNC(=N)N)C(=O)N[C@@H](CC(C)C)C(N)=O)[C@@H](C)CC)NC(=O)[C@@H](N)Cc1ccccc1)C(=O)NCC(=O)N[C@H](CCCNC(=N)N)C(=O)N[C@H](CC(C)C)C(N)=O [Example 3, FCIGRL-NH2 Dimer] (I: H-F[dC][dI]G[dR][dL]-NH2 / II: H-[dF]CIGRL-NH2; disulfide I:2-II:2) | (5.30-fold) | 9.7 fold | (0.38-fold) | (2.29-fold) | AUC0-360min of fexofenadine, times higher than the group dosed with fexofenadine alone [2]: 5.3 times; Fexofenadine Cmax, fold of control group ([2]; fexofenadine with peptide vs fexofenadine alone, listed as H-FCIGRL-NH2 (Dimer)): (9.76-fold); AUC(0-t) [4]: 343 ng·h/mL; Exenadine AUC0-240 min, fold of control ([5]; 5 mg/kg of peptide dimer vs exenadine alone, 5 mg/kg): about 2.17 fold; Exenadine AUC0-240 min, fold of control ([5]; 5 mg/kg of peptide dimer vs exenadine alone, listed as H-FCIGRL-NH2 (Dimer), 5 mg/kg): 3.88(2.17-fold); Exenadine AUC0-240 min, fold of control ([5]; 10 mg/kg of peptide dimer vs exenadine alone, 10 mg/kg): ~4.57 fold; Exenadine AUC0-240 min, fold of control ([5]; 10 mg/kg of peptide dimer vs exenadine alone, listed as H-FCIGRL-NH2 (Dimer), 10 mg/kg): 6.32 (4.57-fold); AUC(0-t) ([1]; 10 mg/kg): 174 ng·h/mL; increase rate of Papp (cm/sec) of each drug, effect of promoting mucous membrane permeation [6]: at least seven times higher
CC[C@H](C)[C@H](NC(=O)[C@H](CSSC[C@H](NC(=O)[C@@H](N)Cc1ccccc1)C(=O)N[C@H](C(=O)NCC(=O)N[C@@H](CCCNC(=N)N)C(=O)N[C@@H](CC(C)C)C(=O)O)[C@@H](C)CC)NC(=O)[C@@H](N)Cc1ccccc1)C(=O)NCC(=O)N[C@@H](CCCNC(=N)N)C(=O)N[C@@H](CC(C)C)C(=O)O [Example 4, FCIGRL-OH Dimer] (I: H-FCIGRL-OH / II: H-FCIGRL-OH; disulfide I:2-II:2) | (3.64-fold) | 6 fold | (0.41-fold) |  | AUC0-360min of fexofenadine, times higher than the group dosed with fexofenadine alone [2]: 3.6 times; Fexofenadine Cmax, fold of control group ([2]; fexofenadine with peptide vs fexofenadine alone, listed as H-FCIGRL-OH (Dimer)): (6.06-fold)
CC[C@H](C)[C@H](NC(=O)[C@H](CSSC[C@H](NC(=O)[C@H](Cc1ccccc1)NC(=O)[C@@H](N)CN=[N+]=[N-])C(=O)N[C@H](C(=O)NCC(=O)N[C@@H](CCCNC(=N)N)C(=O)N[C@@H](CC(C)C)C(N)=O)[C@@H](C)CC)NC(=O)[C@H](Cc1ccccc1)NC(=O)[C@@H](N)CN=[N+]=[N-])C(=O)NCC(=O)N[C@@H](CCCNC(=N)N)C(=O)N[C@@H](CC(C)C)C(N)=O [Example 5, X1FCIGRL-NH2 Dimer] (I: H-[Dap(N3)]FCIGRL-NH2 / II: H-[Dap(N3)]FCIGRL-NH2; disulfide I:3-II:3) |  |  |  | (1.77-fold) | 
COCCc1ccc(OCC(O)CNC(C)C)cc1 (stereo not drawn) [metoprolol] |  |  |  |  | Papp [7]: 38.9 ×10⁻⁶ cm/s
FCIGRL [Preparation Example 2, FCIGRL, reference compound] | (1.53-fold) | (1.16-fold) | (1.52-fold) |  | 
FCIGRL-NH2 [Preparation Example 1, FCIGRL-NH2, reference compound] | (1.70-fold) | (1.45-fold) | (1.14-fold) | (1.49-fold) | 
FKIGRL [Preparation Example 4, FKIGRL, reference compound] | (1.09-fold) | (0.71-fold) | (1.14-fold) |  | 
FRIGRL [Preparation Example 3, FRIGRL, reference compound] | (1.39-fold) | (0.73-fold) | (1.71-fold) |  | 
